Results as given in patent US11401277B2, “Anti-bacterial heterocyclic compounds and their synthesis” (Bugworks Research, Inc., priority 2017, dated 2022).
≈ marks a conversion by molar mass, not a printed value. Where “and” joins values, the source holds several entries; their conditions need not be identical. Equal entries are not always repeated. Where two headings read alike, the source gives them in different places.

Experiments:
[1] = In vivo pharmacokinetic (PK) studies in rats; design: species or system Sprague-Dawley (SD) rats; conditions: male, Sprague-Dawley, rat, plasma
[2] = test system: clinical strains of five Gram-negative bacterial species; test: Antibacterial susceptibility studies, overall statement; assay type: cell-based; conditions: range over 5 Gram-negative species
Source text: The standard drugs ciprofloxacin and meropenem were used as positive controls in the study.

E. coli [ATCC25922] [3] = test: Neutropenic Thigh Infection Model in Rat, E. coli; assay type: in vivo; conditions: for MEAN ± SD (Log10 CFU/g thigh) / Mean Log 10 CFU/thigh reduction (wrt 2 h PI control: 5.04 Log10CFU/g thigh) / Log10 CFU/g thigh: i.v., 1 h infusion; for Log10 CFU/g thigh: individual animals, 10 hr post infection
E. coli DNA gyrase = E. coli DNA gyrase (Escherichia coli, UniProt P0AES4+P0AES6); test: biochemical
E. coli [ATCC25922] [4] = test: Urinary Tract Infection Rat Model (kidneys, bladder); conditions: for MEAN ± SD (Log10 CFU/g kidneys) / MEAN ± SD (Log10 CFU/ml Bladder) / Mean Log10CFU/g kidney reduction (wrt 4 h PI control: 4.53 Log10CFU/g kidneys) / Mean Log10 CFU/ml Bladder reduction (wrt 4 h PI control: 5.72 CFU/ml Bladder) / Log10 CFU/g (Left Kidney) / Log10 CFU/g (Right Kidney) / Log10 CFU/ml Bladder: i.v., 1 h infusion; for Log10 CFU/g (Left Kidney) / Log10 CFU/g (Right Kidney) / Log10 CFU/ml Bladder: individual animals, 24 h post infection
[5] = test system: P. aeruginosa [ATCC27853]; test: Neutropenic Lung Infection Model in Rat; assay type: in vivo; conditions: for MEAN ± SD (Log10 CFU/g Lung) / Mean Log 10 CFU/g lung reduction (wrt 4 h PI control: 6.52 Log10CFU/g lung) / Log10 CFU/g Lung: i.v., 1 h infusion; for Log10 CFU/g Lung: individual animals, 24 h post infection
Protocol: Animals were placed into an induction chamber and anaesthesia was induced by exposing the animals to 3-5% Isoflurane in an oxygen flow set at approximately (˜) 1 liter per minute (LPM). […] A gentle mixing of inoculum between two animals was followed for uniform distribution.
Meropenem was formulated in saline.
Entire Lung was aseptically isolated, weighed and placed into 1 mL of sterile CSDB broth, and homogenized (Omni Tip (220 V hand held)). Serial ten-fold dilutions of the lungs homogenates were prepared in sterile CSD broth and 0.05 mL of four dilutions for each tissue was plated onto CSDA agar plates. Bacterial colonies were enumerated following overnight incubation at 37° C. Bacterial densities were estimated as Log10 CFU/g lung. The Mean±SD Log10 CFU/g lung was estimated in each group.

[6] = test system: K. pneumoniae clinical strains; test: Susceptibility (MIC50 and MIC90 determination) studies, clinical strains; assay type: cell-based; conditions: CLSI
[7] = Klebsiella pneumoniae, Kpn clinical strains

E. coli DNA gyrase, sequence (P0AES4 whole entry, the tested form may be a part, one chain of several): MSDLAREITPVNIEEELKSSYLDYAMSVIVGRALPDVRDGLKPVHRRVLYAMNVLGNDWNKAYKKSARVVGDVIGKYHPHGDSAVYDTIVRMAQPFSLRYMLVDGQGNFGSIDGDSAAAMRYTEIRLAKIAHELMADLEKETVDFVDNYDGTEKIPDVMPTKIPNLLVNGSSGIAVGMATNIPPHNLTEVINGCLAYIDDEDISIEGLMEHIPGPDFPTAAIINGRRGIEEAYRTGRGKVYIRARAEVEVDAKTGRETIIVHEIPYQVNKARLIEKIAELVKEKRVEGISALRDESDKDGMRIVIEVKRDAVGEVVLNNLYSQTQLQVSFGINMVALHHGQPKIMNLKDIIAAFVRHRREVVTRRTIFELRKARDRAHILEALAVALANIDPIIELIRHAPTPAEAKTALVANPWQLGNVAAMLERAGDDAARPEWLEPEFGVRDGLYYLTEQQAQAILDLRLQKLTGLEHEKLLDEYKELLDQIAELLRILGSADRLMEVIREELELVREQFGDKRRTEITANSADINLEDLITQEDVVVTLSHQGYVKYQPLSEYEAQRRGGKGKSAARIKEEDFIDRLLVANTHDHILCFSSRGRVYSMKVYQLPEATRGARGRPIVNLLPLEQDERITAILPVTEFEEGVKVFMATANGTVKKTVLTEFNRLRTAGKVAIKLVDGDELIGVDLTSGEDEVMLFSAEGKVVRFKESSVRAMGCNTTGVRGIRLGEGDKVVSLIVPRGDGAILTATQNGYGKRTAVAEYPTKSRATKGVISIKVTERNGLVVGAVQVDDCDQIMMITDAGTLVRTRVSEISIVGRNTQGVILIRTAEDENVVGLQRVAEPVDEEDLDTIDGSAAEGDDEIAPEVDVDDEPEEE

## Cn1c(=O)ccc2ccc(F)c(OCCNC[C@H]3CN(c4cnc5c(n4)NC(=O)CO5)C(=O)O3)c21 [Compound 2, (S)-6-(5-(((2-((7-fluoro-1-methyl-2-oxo-1,2-dihydroquinolin-8-yl)oxy)ethyl)amino)methyl)-2-oxooxazolidin-3-yl)-2H-pyrazino[2,3-b][1,4]oxazin-3(4H)-one]
[1]; 150 mg/kg, IV
  AUC(0-t): 172 ± 10.8 µg·h/mL
  Tmax: 2 h
  half-life: 254 ± 40.2 min
[1]; 150 mg/kg, IV, read-out: CLp (converted)
  clearance: 14.5 mL/min/kg
[1]; 300 mg/kg, PO
  AUC(0-inf): 27200 ± 17500 ng·h/mL
  Cmax: 11100 ± 3100 ng/mL
  Tmax: 1 h
  half-life: 132 min
[2]
  MIC90: 0.25 to 1 µg/mL (≈ 0.516 to 2.06 µM)
E. coli [ATCC25922] [3]; 3 mg/kg
  MEAN ± SD (Log10 CFU/g thigh): 5.08 ± 0.39 Log10 CFU/g thigh
  Mean Log 10 CFU/thigh reduction (wrt 2 h PI control: 5.04 Log10CFU/g thigh): 0.77 Log 10 CFU/thigh
  Log10 CFU/g thigh: 5.37 Log10 CFU/g thigh and 4.64 Log10 CFU/g thigh and 5.23 Log10 CFU/g thigh
E. coli [ATCC25922] [3]; 10 mg/kg
  MEAN ± SD (Log10 CFU/g thigh): 4.41 ± 0.18 Log10 CFU/g thigh
  Mean Log 10 CFU/thigh reduction (wrt 2 h PI control: 5.04 Log10CFU/g thigh): 1.44 Log 10 CFU/thigh
  Log10 CFU/g thigh: 4.44 Log10 CFU/g thigh and 4.57 Log10 CFU/g thigh and 4.21 Log10 CFU/g thigh
E. coli [ATCC25922] [3]; 30 mg/kg
  MEAN ± SD (Log10 CFU/g thigh): 2.83 ± 0.35 Log10 CFU/g thigh
  Mean Log 10 CFU/thigh reduction (wrt 2 h PI control: 5.04 Log10CFU/g thigh): 3.02 Log 10 CFU/thigh
  Log10 CFU/g thigh: 2.66 Log10 CFU/g thigh and 2.6 Log10 CFU/g thigh and 3.24 Log10 CFU/g thigh
E. coli [ATCC25922] [3]; 3, 10 and 30 mg/kg, rat thigh E. coli
  efficacy with respect to 2 h Post Infection (PI) control (in words): significant dose dependent bactericidal efficacy
E. coli DNA gyrase; gel based supercoiling assay, read-out: E. coli DNA Gyrase IC50
  IC50: 12 nM
E. coli DNA gyrase; unit inferred, read-out: IC50 E. coli DNA Gyrase
  IC50: ≤ 50 nM
E. coli [ATCC25922] [4]; 3 mg/kg
  effect when compared to the 4 h PI control (in words): bacteriostatic
  MEAN ± SD (Log10 CFU/g kidneys): 5.13 ± 0.28 Log10 CFU/g kidneys
  MEAN ± SD (Log10 CFU/ml Bladder): 5.89 ± 0.4 Log10 CFU/ml Bladder
  Mean Log10CFU/g kidney reduction (wrt 4 h PI control: 4.53 Log10CFU/g kidneys): −0.60 Log10CFU/g kidney
  Mean Log10 CFU/ml Bladder reduction (wrt 4 h PI control: 5.72 CFU/ml Bladder): −0.17 Log10 CFU/ml Bladder
  Log10 CFU/g (Left Kidney): 5.39 Log10 CFU/g and 5.17 Log10 CFU/g and 5.24 Log10 CFU/g
  Log10 CFU/g (Right Kidney): 4.68 Log10 CFU/g and 4.90 Log10 CFU/g and 5.39 Log10 CFU/g
  Log10 CFU/ml Bladder: 5.43 Log10 CFU/ml Bladder and 6.16 Log10 CFU/ml Bladder and 6.08 Log10 CFU/ml Bladder
E. coli [ATCC25922] [4]; 10 mg/kg
  MEAN ± SD (Log10 CFU/g kidneys): 3.95 ± 0.33 Log10 CFU/g kidneys
  MEAN ± SD (Log10 CFU/ml Bladder): 4.8 ± 0.2 Log10 CFU/ml Bladder
  Mean Log10CFU/g kidney reduction (wrt 4 h PI control: 4.53 Log10CFU/g kidneys): 0.58 Log10CFU/g kidney
  Mean Log10 CFU/ml Bladder reduction (wrt 4 h PI control: 5.72 CFU/ml Bladder): 0.92 Log10 CFU/ml Bladder
  Log10 CFU/g (Left Kidney): 4.12 Log10 CFU/g and 3.78 Log10 CFU/g and 4.46 Log10 CFU/g
  Log10 CFU/g (Right Kidney): 4.11 Log10 CFU/g and 3.65 Log10 CFU/g and 3.61 Log10 CFU/g
  Log10 CFU/ml Bladder: 5.02 Log10 CFU/ml Bladder and 4.61 Log10 CFU/ml Bladder and 4.76 Log10 CFU/ml Bladder
E. coli [ATCC25922] [4]; 30 mg/kg
  MEAN ± SD (Log10 CFU/g kidneys): 2.91 ± 0.31 Log10 CFU/g kidneys
  MEAN ± SD (Log10 CFU/ml Bladder): 3.89 ± 0.3 Log10 CFU/ml Bladder
  Mean Log10CFU/g kidney reduction (wrt 4 h PI control: 4.53 Log10CFU/g kidneys): 1.62 Log10CFU/g kidney
  Mean Log10 CFU/ml Bladder reduction (wrt 4 h PI control: 5.72 CFU/ml Bladder): 1.83 Log10 CFU/ml Bladder
  Log10 CFU/g (Left Kidney): 3.22 Log10 CFU/g and 3.36 Log10 CFU/g and 2.80 Log10 CFU/g
  Log10 CFU/g (Right Kidney): 2.77 Log10 CFU/g and 2.75 Log10 CFU/g and 2.55 Log10 CFU/g
  Log10 CFU/ml Bladder: 4.19 Log10 CFU/ml Bladder and 3.90 Log10 CFU/ml Bladder and 3.58 Log10 CFU/ml Bladder
E. coli [ATCC25922] [4]; 10 and 30 mg/kg
  effect with respect to 4 h PI control (in words): significant dose dependent bactericidal effect
[5]; 3 mg/kg
  MEAN ± SD (Log10 CFU/g Lung): 8.09 ± 0.14 Log10 CFU/g Lung
  Mean Log 10 CFU/g lung reduction (wrt 4 h PI control: 6.52 Log10CFU/g lung): −1.57 Log 10 CFU/g lung
  Log10 CFU/g Lung: 7.99 Log10 CFU/g Lung and 8.02 Log10 CFU/g Lung and 8.26 Log10 CFU/g Lung
[5]; 10 mg/kg
  MEAN ± SD (Log10 CFU/g Lung): 6.93 ± 0.44 Log10 CFU/g Lung
  Mean Log 10 CFU/g lung reduction (wrt 4 h PI control: 6.52 Log10CFU/g lung): −0.41 Log 10 CFU/g lung
  Log10 CFU/g Lung: 7.34 Log10 CFU/g Lung and 6.98 Log10 CFU/g Lung and 6.46 Log10 CFU/g Lung
[5]; 30 mg/kg and 100 mg/kg doses
  efficacy with respect to early infection control (in words): significant efficacy
[5]; 30 mg/kg
  MEAN ± SD (Log10 CFU/g Lung): 5.35 ± 0.25 Log10 CFU/g Lung
  Mean Log 10 CFU/g lung reduction (wrt 4 h PI control: 6.52 Log10CFU/g lung): 1.17 Log 10 CFU/g lung
  Log10 CFU/g Lung: 5.30 Log10 CFU/g Lung and 5.63 Log10 CFU/g Lung and 5.14 Log10 CFU/g Lung
[5]; 100 mg/kg
  MEAN ± SD (Log10 CFU/g Lung): 3.1 ± 0.12 Log10 CFU/g Lung
  Mean Log 10 CFU/g lung reduction (wrt 4 h PI control: 6.52 Log10CFU/g lung): 3.42 Log 10 CFU/g lung
  Log10 CFU/g Lung: 3.12 Log10 CFU/g Lung and 3.20 Log10 CFU/g Lung and 2.98 Log10 CFU/g Lung
[6]; [7]
  MIC50: 0.125 µg/mL (≈ 0.258 µM)
  MIC90: 0.5 µg/mL (≈ 1.03 µM)
[6]; Kpn clinical strains, MIC50/MIC90 in μg/ml
  Minimum (MIC): 0.06 µg/mL
[6]; Kpn reference strain ATCC13883, MIC50/MIC90 in μg/ml
  MIC ATCC13883: 0.06 µg/mL (≈ 0.124 µM)
